Measured values published in patent publication US8058314B2, “Conductance of improperly folded proteins through the secretory pathway and related methods for treating disease” (Yale University, priority 1999, dated 2011).

Experiments:
[1] = tested on: ΔF508 CFTR; assay: Confocal immunofluorescence localization of CFTR in CFPAC cells; format: cell-based, human
Method: (§1) CFPAC and CFBE290^− epithelial cells were grown to confluence on 0.45 micron Transwell filter inserts (Corning Costar, Cambridge, Mass.) under the same conditions described for the short circuit current measurements. Prior to immunofluorescence analysis, filter grown cell monolayers were treated for 90 min with 1 μM thapsigargin at 37° C., present in both the apical and basolateral media compartments. The media was then changed to standard Iscove's growth medium or DMEM without thapsigargin, and cells were incubated for 2 or 4 hours at 37° C. Control cells underwent the same media changes but were not subjected to thapsigargin treatment.
(§2) Following the second incubation, the filter grown monolayers were washed once with phosphate buffered saline supplemented with calcium and magnesium (150 mM NaCl, 10 mM NaPi, pH 7.4, 1 mM MgCl2, 0.1 mM CaCl2), after which they were fixed for 10 minutes in −20° C. 100% methanol. Immunofluorescence labeling was performed using the well characterized 169 and 181 antibodies (gift of W. Guggino, Johns Hopkins University) directed against the R domain and the prenucleotide binding fold of the CFTR protein, respectively (Crawford et al., Proc. Nat. Acad. Sci. 88:9262-9266 (1991)) and a monoclonal antibody directed against the α-subunit of the Na,K-ATPase (Gottardi and Caplan, J. Cell Biol. 121:283-293 (1993)).
(§3) Incubations with primary and rhodamine-conjugated secondary antibodies were performed as previously described (Gottardi and Caplan, Id.). Labeled cells were examined using a Zeiss LSM 410 laser scanning confocal microscope. All images are the product of 8-fold line averaging. Contrast and brightness settings were chosen so that all pixels were in the linear range. YZ cross sections were generated using a 0.2 μmotor step.

[2] = tested on: α1-antitrypsin, null (Hong Kong); assay: Secretion of α1-antitrypsin null (Hong Kong) from stably transfected mouse hepatoma cells, pulse-chase; format: cell-based; conditions: 1 μM thapsigargin for 3 hours during chase
Method: Experiment 2 is repeated using a cell line that expresses a retention mutation for cc1-antitrypsin, such as the secretion-incompetent variant, null (Hong Kong), retained in stably transfected mouse hepatoma cells (J. Biol. Chem. 269:7514-7519 (1994)). Changes in the cell phenotype are assessed by assaying cells for secretion of a 1-antitrypsin (detailed description in J. Biol. Chem. 268:2001-2008 (1993)).
Briefly, cell monolayers are pulse labeled with [^35S] methionine for 30 minutes, after which the radiolabeled media is removed and replaced with media containing an excess of unlabeled methionine. During the chase period, one set of monolayers is treated with 1 μM thapsigargin for 3 hours, while another set is incubated for 3 hours in drug free media. Secretion of α1-antitrypsin into the media is assessed by immunoprecipitation followed by electrophoresis and autoradiography.
Results. Cells expressing the secretion-incompetent variant of α1-antitrypsin, null (Hong Kong), are pulse labeled for 30 minutes with [^35S] methionine, after which they were incubated in non-radioactive media for 3 hours in the presence or absence of 1 μM thapsigargin. After this chase incubation, the media is collected and subjected to immunoprecipitation with anti-α1-antitrypsin antibodies. Immunoprecipitates are analyzed by SDS-PAGE followed by autoradiography.

[3] = tested on: ΔF508 CFTR; assay: Immunofluorescence localization of CFTR in CFBE290− airway epithelial cells; format: cell-based, human
Method: as §1, §2
as §3, with “YZ cross sections were generated using a 0.2 μmotor step.” left out
To ensure that the dose of thapsigargin received by the mice was sufficient to rescue ΔF508-CFTR in airway epithelial cells, we examined the effect of nebulized thapsigargin on CFBE290^− cells. […] Filter-grown CFBE290^− cells were exposed to 1 μM nebulized thapsigargin for 3 hours and the distribution of ΔF508-CFTR was evaluated by immunofluorescence.

C/C=C(/C)C(=O)O[C@H]1C(C)=C2[C@H]([C@@H]1OC(=O)CCCCCCC)[C@@](C)(OC(C)=O)C[C@H](OC(=O)CCC)[C@@]1(O)[C@H]2OC(=O)[C@@]1(C)O [thapsigargin]
CFTR staining pattern ([1]; 1 μM thapsigargin 90 min, en face and XZ cross section): bright labeling of apical microvilli could be detected in most of the cells
thapsigargin effect on ΔF508-CFTR surface appearance with protein synthesis blocked ([1]; 10 mm cycloheximide during treatment and chase, cell line not stated, data not shown): did not abrogate the thapsigargin effect
CFTR staining pattern ([1]; 2 hours after 1 μM thapsigargin 90 min): exhibited only apical staining
CFTR staining pattern ([1]; 4 hours after 1 μM thapsigargin 90 min, data not shown): CFTR staining both at the apical membrane and in the ER
thapsigargin-induced delivery of ΔF508-CFTR to the cell surface in BAPTA-preloaded cells ([1]; cell line not stated, data not shown): did not inhibit the thapsigargin-induced delivery of ΔF508-CFTR to the cell surface
radiolabeled α1-antitrypsin in the media [2]: Radiolabeled α1-antitrypsin protein is present in the media
distribution of ΔF508-CFTR ([3]; 1 μM nebulized thapsigargin for 3 hours, air-liquid interface): dramatic redistribution of ΔF508-CFTR to the apical plasmalemma
ΔF508-CFTR surface delivery ([3]; agent dissolved in media): present to the same extent at the apical surfaces of cells treated with nebulized or dissolved thapsigargin
